We go through 24 compounds from US20070072831A1, “Integrase inhibitor compounds” (GILEAD SCIENCES, INC., priority 2005, published 2007).

In assay [1] the test system is HIV-IIIb. In words: Antiviral assay in MT-4 cells infected with HIV-IIIb. The following applies: MT4, 120 h; MT-4 cells, HIV-IIIb, 5 days; read-out: EC50 Range MT-4. It counts as cell-based. The protocol:
See: Wolfe, etal J. Virol.
Antiviral Assays in MT2 and MT4 Cells
For the antiviral assay utilizing MT-2 cells, 50 μl of 2× test concentration of 5-fold serially diluted compound in culture medium with 10% FBS was added to each well of a 96-well plate (9 concentrations) in triplicate. MT-2 cells were infected with HIV-IIIb at a multiplicity of infection (m.o.i) of 0.01 for 3 hours. Fifty microliters of infected cell suspension in culture medium with 10% FBS (˜1.5×10^4 cells) was then added to each well containing 50 μl of diluted compound. The plates were then incubated at 37° C. for 5 days. For the antiviral assay utilizing MT-4 cells, 20 μl of 2× test concentration of 5-fold serially diluted compound in culture medium with 10% FBS was added to each well of a 384-well plate (7 concentrations) in triplicate. MT-4 cells were next mixed with HIV-IIIb at an m.o.i. of 0.1 and 20 μl of virus/cell mixture (˜2000 cells) was immediately added to each well containing 20 μl of diluted compound. The plates were then incubated at 37° C. for 5 days. After 5 days of incubation, 100 μl of CellTiter-Glo™ Reagent (catalog # G7571, Promega Biosciences, Inc., Madison, Wis.) was added to each well containing MT-2 cells and 40 μl to each well containing MT-4 cells. Cell lysis was carried out by incubating at room temperature for 10 min and then chemiluminescence was read.

Assay [2] deals with HIV integrase (Human immunodeficiency virus type 1 group M subtype B, UniProt P04585). In words: biochemical.
Description: Representative compounds of the invention were tested for biological activity by methods including anti-HIV assay, measuring inhibition of HIV-integrase strand transfer catalysis, and cytotoxicity.
HIV Integrase Assay (IC50 Determination)
The HIV Integrase assay is carried out in Reacti-Bind High Binding Capacity Streptavidin coated plates (Pierce # 15502) in 100 μl reactions. The wells of the plate are rinsed once with PBS. Each well is then coated at room temperature for 1 h with 100 μl of 0.14 μM Donor DNA with the following sequence:
After coating, the plate was washed twice with PBS. 3′processing of the Donor DNA is started by adding 80 μl of Integrase/buffer mixture (25 mM HEPES, pH 7.3, 12.5 mM DTT, 93.75 mM NaCl, 12.5 mM MgCl2, 1.25% Glycerol, 0.3125 uM integrase) to each well. 3′processing is allowed to proceed for 30 min at 37° C., after which, 10 μl of test compound and 10 μl of 2.5 uM DIG-labeled Target DNA with the following sequence:
are added to each well to allow strand transfer to proceed for 30 min at 37° C. The plate is then washed three times with 2×SSC for 5 min and rinsed once with PBS. For detection of integrated product, 100 μl of a 1/2000 dilution of HRP-conjugated anti-DIG antibody (Pierce #31468) are added to each well and incubated for 1 hour. The plate was then washed three times for 5 min each, with 0.05% Tween-20 in PBS. For signal development and amplification, 100 μl of SuperSignal ELISA Femto Substrate (Pierce #37075) are added to each well. Chemiluminescence (in relative light units) is read immediately at 425 nm in the SPECTRAmax GEMINI Microplate Spectrophotometer using the end point mode at 5 sec per well.
For IC50 determinations, eight concentrations of test compounds in a 1/2.2 dilution series are used.

SMILES strings stand for the structures.

By EC50 is commonly meant the concentration that produces a half-maximal response. Broadly, the IC50 is the point on the concentration scale where inhibition reaches its midpoint. A lower IC50 goes with greater potency in that assay. As to `CN(c1c2c(c(O)c3ncccc13)C(=O)N(Cc1ccc(F)cc1)C2)S(=O)(=O)CC(F)(F)F` [Compound 156, 2,2,2-trifluoro-N-(7-(4-fluorobenzyl)-9-hydroxy-8-oxo-7,8-dihydro-6H-pyrrolo[3,4-g]quinolin-5-yl)-N-methylethane-1-sulfonamide], the EC50 in assay [1] lay in the range of 60 to 1000 nM. The IC50 in assay [2] is under 60 nM.
On to `CN(c1c2c(c(O)c3ncccc13)C(=O)N(Cc1ccc(F)cc1)C2)S(=O)(=O)c1ccccn1` [Compound 158, N-(7-(4-fluorobenzyl)-9-hydroxy-8-oxo-7,8-dihydro-6H-pyrrolo[3,4-g]quinolin-5-yl)-N-methylpyridine-2-sulfonamide], for which the EC50 in assay [1] was under 60 nM. In addition, the IC50 in assay [2] was in the range of 60 to 1000 nM.
With `CN(c1c2c(c(O)c3ncccc13)C(=O)N(Cc1ccc(F)cc1)C2)S(=O)(=O)c1ccc(N2CCOCC2)nc1` [Compound 159, N-(7-(4-fluorobenzyl)-9-hydroxy-8-oxo-7,8-dihydro-6H-pyrrolo[3,4-g]quinolin-5-yl)-N-methyl-6-morpholinopyridine-3-sulfonamide], the EC50 in assay [1] was 60 to 1000 nM. This compound came in with an IC50 in assay [2] of 60 to 1000 nM.
Consider `CC(=O)Nc1nc(C)c(S(=O)(=O)N(C)c2c3c(c(O)c4ncccc24)C(=O)N(Cc2ccc(F)cc2)C3)s1` [Compound 160, N-(5-(N-(7-(4-fluorobenzyl)-9-hydroxy-8-oxo-7,8-dihydro-6H-pyrrolo[3,4-g]quinolin-5-yl)-N-methylsulfamoyl)-4-methylthiazol-2-yl)acetamide], for which the EC50 in assay [1] fell in the range of 60 to 1000 nM. This compound yielded an IC50 in assay [2] of 60 to 1000 nM.
On to `CCN(CC)CCS(=O)(=O)N(C)c1c2c(c(O)c3ncccc13)C(=O)N(Cc1ccc(F)cc1)C2` [Compound 161, 2-(diethylamino)-N-(7-(4-fluorobenzyl)-9-hydroxy-8-oxo-7,8-dihydro-6H-pyrrolo[3,4-g]quinolin-5-yl)-N-methylethanesulfonamide], for which, in assay [1], the concentration for a half-maximal effect (EC50) was under 60 nM. This compound also showed an IC50 in assay [2] of 60 to 1000 nM.
As to `CN(c1c2c(c(O)c3ncccc13)C(=O)N(Cc1ccc(F)cc1)C2)S(=O)(=O)CCN1CCCCC1` [Compound 162, N-(7-(4-fluorobenzyl)-9-hydroxy-8-oxo-7,8-dihydro-6H-pyrrolo[3,4-g]quinolin-5-yl)-N-methyl-2-(piperidin-1-yl)ethanesulfonamide], the EC50 in assay [1] lay in the range of 60 to 1000 nM. The IC50 in assay [2] lay within 60 to 1000 nM.
Take `CN(c1c2c(c(O)c3ncccc13)C(=O)N(Cc1ccc(F)cc1)C2)S(=O)(=O)CCN1CCOCC1` [Compound 163, N-(7-(4-fluorobenzyl)-9-hydroxy-8-oxo-7,8-dihydro-6H-pyrrolo[3,4-g]quinolin-5-yl)-N-methyl-2-morpholinoethanesulfonamide]: in assay [1], the EC50 is under 60 nM. The compound further gave an IC50 in assay [2] of under 60 nM.
Regarding `CN(c1c2c(c(O)c3ncccc13)C(=O)N(Cc1ccc(F)cc1)C2)S(=O)(=O)CCN1CCNCC1` [Compound 164, N-(7-(4-fluorobenzyl)-9-hydroxy-8-oxo-7,8-dihydro-6H-pyrrolo[3,4-g]quinolin-5-yl)-N-methyl-2-(piperazin-1-yl)ethanesulfonamide], the EC50 in assay [1] is 60 to 1000 nM. Besides, the IC50 in assay [2] is 60 to 1000 nM.
Take `CN(C)C(=O)N(C)c1c2c(c(O)c3ncccc13)C(=O)N(Cc1ccc(F)cc1)C2` [Compound 171, 1-(7-(4-fluorobenzyl)-9-hydroxy-8-oxo-7,8-dihydro-6H-pyrrolo[3,4-g]quinolin-5-yl)-1,3,3-trimethylurea]: the EC50 in assay [1] was under 60 nM. The compound further came in with a half-inhibitory concentration (IC50) in assay [2] of under 60 nM.
As for `CN(C(=O)N1CCOCC1)c1c2c(c(O)c3ncccc13)C(=O)N(Cc1ccc(F)cc1)C2` [Compound 173, N-(7-(4-fluorobenzyl)-9-hydroxy-8-oxo-7,8-dihydro-6H-pyrrolo[3,4-g]quinolin-5-yl)-N-methylmorpholine-4-carboxamide], the EC50 in assay [1] lay within 60 to 1000 nM. In assay [2], this compound yielded an IC50 of 60 to 1000 nM.
In the case of `CN(c1c2c(c(O)c3ncccc13)C(=O)N(Cc1cccc(Cl)c1)C2)S(C)(=O)=O` [Compound 175, N-(7-(3-chlorobenzyl)-9-hydroxy-8-oxo-7,8-dihydro-6H-pyrrolo[3,4-g]quinolin-5-yl)-N-methylmethanesulfonamide], in assay [1], the EC50 was under 60 nM. Also, the IC50 in assay [2] was in the range of 60 to 1000 nM.
The matching figures for `CN(c1c2c(c(O)c3ncccc13)C(=O)N(Cc1cccc(Cl)c1F)C2)S(C)(=O)=O` [Compound 177, N-(7-(3-chloro-2-fluorobenzyl)-9-hydroxy-8-oxo-7,8-dihydro-6H-pyrrolo[3,4-g]quinolin-5-yl)-N-methylmethanesulfonamide]: under 60 nM and 60 to 1000 nM.
For `CN(c1c2c(c(O)c3ncccc13)C(=O)N(Cc1ccc(F)c(F)c1)C2)S(C)(=O)=O` [Compound 179, N-(7-(3,4-difluorobenzyl)-9-hydroxy-8-oxo-7,8-dihydro-6H-pyrrolo[3,4-g]quinolin-5-yl)-N-methylmethanesulfonamide] the same measures were under 60 nM and under 60 nM.
As for `CN(c1c2c(c(O)c3ncccc13)C(=O)N(Cc1ccc(F)c(Cl)c1)C2)S(C)(=O)=O` [Compound 181, N-(7-(3-chloro-4-fluorobenzyl)-9-hydroxy-8-oxo-7,8-dihydro-6H-pyrrolo[3,4-g]quinolin-5-yl)-N-methylmethanesulfonamide], in assay [1], the EC50 is under 60 nM. This compound also returned an IC50 in assay [2] of under 60 nM.
Take `CN(c1c2c(c(O)c3ncccc13)C(=O)N(Cc1ccc(Cl)cc1)C2)S(C)(=O)=O` [Compound 183, N-(7-(4-chlorobenzyl)-9-hydroxy-8-oxo-7,8-dihydro-6H-pyrrolo[3,4-g]quinolin-5-yl)-N-methylmethanesulfonamide]: the EC50 in assay [1] is under 60 nM. In assay [2], this compound yielded an IC50 of 60 to 1000 nM.
Turning to `CN(c1c2c(c(O)c3ncccc13)C(=O)N(Cc1c(F)ccc(Cl)c1F)C2)S(C)(=O)=O` [Compound 185, N-(7-(3-chloro-2,6-difluorobenzyl)-9-hydroxy-8-oxo-7,8-dihydro-6H-pyrrolo[3,4-g]quinolin-5-yl)-N-methylmethanesulfonamide], the EC50 in assay [1] was under 60 nM. Further, in assay [2], the IC50 fell in the range of 60 to 1000 nM.
Turning to `CN(c1c2c(c(O)c3ncccc13)C(=O)N(Cc1c(F)cc(F)cc1F)C2)S(C)(=O)=O` [Compound 187, N-(7-(2,4,6-trifluorobenzyl)-9-hydroxy-8-oxo-7,8-dihydro-6H-pyrrolo[3,4-g]quinolin-5-yl)-N-methylmethanesulfonamide], in assay [1], the EC50 is under 60 nM. Besides, the IC50 in assay [2] lay in the range of 60 to 1000 nM.
As to `CN(c1c2c(c(O)c3ncccc13)C(=O)N(Cc1ccc(Cl)cc1F)C2)S(C)(=O)=O` [Compound 189, N-(7-(4-chloro-2-fluorobenzyl)-9-hydroxy-8-oxo-7,8-dihydro-6H-pyrrolo[3,4-g]quinolin-5-yl)-N-methylmethanesulfonamide], in assay [1], the EC50 was under 60 nM. The same compound yielded an IC50 in assay [2] of 60 to 1000 nM.
As for `CN(c1c2c(c(O)c3ncccc13)C(=O)N(Cc1cc(F)ccc1F)C2)S(C)(=O)=O` [Compound 191, N-(7-(2,5-difluorobenzyl)-9-hydroxy-8-oxo-7,8-dihydro-6H-pyrrolo[3,4-g]quinolin-5-yl)-N-methylmethanesulfonamide], the EC50 in assay [1] was under 60 nM. The compound also had an IC50 in assay [2] of 60 to 1000 nM.
For `CN(c1c2c(c(O)c3ncccc13)C(=O)N(Cc1cc(Cl)cc(Cl)c1)C2)S(C)(=O)=O` [Compound 193, N-(7-(3,5-dichlorobenzyl)-9-hydroxy-8-oxo-7,8-dihydro-6H-pyrrolo[3,4-g]quinolin-5-yl)-N-methylmethanesulfonamide] the same measures were under 60 nM and 60 to 1000 nM.
For `CN(c1c2c(c(O)c3ncccc13)C(=O)N(Cc1c(F)cccc1F)C2)S(C)(=O)=O` [Compound 195, N-(7-(2,6-difluorobenzyl)-9-hydroxy-8-oxo-7,8-dihydro-6H-pyrrolo[3,4-g]quinolin-5-yl)-N-methylmethanesulfonamide], the EC50 in assay [1] was in the range of 60 to 1000 nM. In assay [2], this compound had an IC50 of 60 to 1000 nM.
In the case of `CN(c1c2c(c(O)c3ncccc13)C(=O)N(Cc1ccc(Cl)c(Cl)c1)C2)S(C)(=O)=O` [Compound 197, N-(7-(3,4-dichlorobenzyl)-9-hydroxy-8-oxo-7,8-dihydro-6H-pyrrolo[3,4-g]quinolin-5-yl)-N-methylmethanesulfonamide], the EC50 in assay [1] is under 60 nM. For the same compound, the IC50 in assay [2] lay in the range of 60 to 1000 nM.
For `CN(c1c2c(c(O)c3ncccc13)C(=O)N(Cc1ccc(F)c(Cl)c1F)C2)S(C)(=O)=O` [Compound 199, N-(7-(3-chloro-2,4-difluorobenzyl)-9-hydroxy-8-oxo-7,8-dihydro-6H-pyrrolo[3,4-g]quinolin-5-yl)-N-methylmethanesulfonamide] the same measures were under 60 nM and 60 to 1000 nM.
For `CN(c1c2c(c(O)c3ncccc13)C(=O)N(Cc1cc(Cl)c(F)cc1F)C2)S(C)(=O)=O` [Compound 204, N-(7-(5-chloro-2,4-difluorobenzyl)-9-hydroxy-8-oxo-7,8-dihydro-6H-pyrrolo[3,4-g]quinolin-5-yl)-N-methylmethanesulfonamide], the EC50 in assay [1] was under 60 nM. The IC50 in assay [2] was under 60 nM.
